{"source": "patent US20090123419A1", "about": "“TREATMENT OF UTERINE CANCER AND OVARIAN CANCER WITH A PARP INHIBITOR ALONE OR IN COMBINATION WITH ANTI-TUMOR AGENTS” (BiPar Sciences, priority 2007, published 2009)", "key": {"[1]": {"test_system": "cells not expressing Bcr-Abl", "settings": "cited from earlier work"}, "[2]": {"test_system": "panel of 63 other kinases, including native c-Abl", "settings": "cited from earlier work"}, "advanced solid tumors": {"test_system": "advanced solid tumors", "assay": "Phase 1b study of BA in combination with chemotherapy, clinical response via RECIST", "type": "in vivo, human", "settings": "number of subjects; chemotherapy in combination with BA", "description": "The protocol has been amended to evaluate BA in combination with chemotherapy in specific tumor types.\nBA plus cytotoxic chemotherapy (CTX)\nBA Dosing: • Twice weekly; i.v. infusion • Standard 3+3 design for BA dose escalation • Dose levels studied: 2.0, 2.8, 4.0, 5.6, 8.0, and up to 11.2 mg/kg\nClinical response via RECIST every 2 cycles\nSubjects— 18 years old with a refractory, advanced solid tumor, ECOG PS of <=2, and adequate hematological, renal, and hepatic function\nNo restriction on number of prior chemotherapeutic regimens"}, "[3]": {"test_system": "advanced endometrial cancer", "settings": "of 29 patients enrolled; preliminary data analysis; cited from earlier work"}, "[4]": {"test_system": "carcinosarcoma of the uterus", "settings": "single agent; cited from earlier work"}, "endometrial carcinoma": {"test_system": "endometrial carcinoma", "settings": "cited from earlier work"}, "[5]": {"test_system": "carcinosarcoma of the uterus", "settings": "cited from earlier work"}, "[6]": {"test_system": "carcinosarcoma of the uterus", "settings": "cited from earlier work", "remark": "listed apart in the source"}, "[7]": {"test_system": "advanced or recurrent endometrial cancer", "settings": "single agent; cited from earlier work"}, "[8]": {"test_system": "persistent or recurrent nonsquamous cell carcinoma of the cervix", "settings": "cited from earlier work"}}, "note": "Read-outs that look alike come from different tables or passages of the source.", "data": [{"compound": "NC(=O)c1cccc(-c2cc(Nc3ccc(OC(F)(F)F)cc3)ncn2)c1", "note": "[GNF-2]", "values": [{"measurement": "toxicity towards cells not expressing Bcr-Abl", "setting": "[1]", "value": "complete lack of toxicity"}, {"measurement": "inhibition of a panel of 63 other kinases", "setting": "[2]", "value": "does not inhibit"}]}, {"compound": "Nc1ccn(C2OC(CO)C(O)C2(F)F)c(=O)n1", "note": "(centres unmarked) [Gemcitabine, 4-amino-1-[3,3-difluoro-4-hydroxy-5-(hydroxymethyl)tetrahydrofuran-2-yl]-1H-pyrimidin-2-one]", "values": [{"measurement": "CR + PR", "setting": "advanced solid tumors", "value": 3}]}, {"compound": "Cn1nnc2c(C(N)=O)ncn2c1=O", "note": "[Temozolomide, temozolomide]", "values": [{"measurement": "CR + PR", "setting": "advanced solid tumors", "value": 1}]}, {"compound": "COc1cc2ncnc(Nc3ccc(F)c(Cl)c3)c2cc1OCCCN1CCOCC1", "note": "[ZD1839, gefitinib]", "values": [{"measurement": "patients with complete response", "setting": "[3]", "value": 1, "unit": "patient"}, {"measurement": "patients with stable disease at 6 months", "setting": "[3]", "value": "several"}]}, {"compound": "N.N.[Cl][Pt][Cl]", "note": "[cisplatin]", "values": [{"measurement": "response rate", "setting": "[4]", "value": 18, "unit": "%"}]}, {"compound": "COc1cccc2c1C(=O)c1c(O)c3c(c(O)c1C2=O)C[C@@](O)(C(=O)CO)C[C@@H]3O[C@H]1C[C@H](N)[C@H](O)[C@H](C)O1", "note": "[doxorubicin]", "values": [{"measurement": "response rate (RR)", "setting": "endometrial carcinoma; doxorubicin 60 mg/m^2, cisplatin 50 mg/m^2, p=0.004", "value": 25, "unit": "%"}, {"measurement": "PFS", "setting": "endometrial carcinoma; in vivo", "value": 3.8, "unit": "months"}, {"measurement": "OS", "setting": "endometrial carcinoma; no difference observed", "value": 9, "unit": "months"}, {"measurement": "response rate", "setting": "[4]", "value": 9.8, "unit": "%"}]}, {"compound": "COc1cc([C@@H]2c3cc4c(cc3[C@@H](O[C@@H]3O[C@@H]5CO[C@@H](C)O[C@H]5[C@H](O)[C@H]3O)[C@H]3COC(=O)[C@H]23)OCO4)cc(OC)c1O", "note": "[etoposide]", "values": [{"measurement": "response rate", "setting": "[4]", "value": 6.5, "unit": "%"}]}, {"compound": "O=P1(NCCCl)OCCCN1CCCl", "note": "(centres unmarked) [ifosfamide]", "values": [{"measurement": "median progression-free survival", "setting": "[5]; p=0.03", "value": 3.6, "unit": "months"}, {"measurement": "median survival", "setting": "[5]; p=0.03", "value": 8.4, "unit": "months"}, {"measurement": "response rate", "setting": "[5]; second randomized trial", "value": 29, "unit": "%"}, {"measurement": "toxicity", "setting": "[5]; use of ifosfamide", "value": "significant toxicity"}, {"measurement": "response rate", "setting": "[4]", "value": 32.2, "unit": "%"}, {"measurement": "median progression-free survival", "setting": "[6]; p=0.02", "value": 4, "unit": "months"}, {"measurement": "median survival", "setting": "[6]; p=0.07", "value": 7.6, "unit": "months"}, {"measurement": "response rate", "setting": "[6]; randomized phase III trial", "value": 36, "unit": "%"}]}, {"compound": "CC(=O)O[C@H]1C(=O)[C@@]2(C)[C@H]([C@H](OC(=O)c3ccccc3)[C@]3(O)C[C@H](OC(=O)[C@H](O)[C@@H](NC(=O)c4ccccc4)c4ccccc4)C(C)=C1C3(C)C)[C@]1(OC(C)=O)CO[C@@H]1C[C@@H]2O", "note": "[paclitaxel]", "values": [{"measurement": "response rate", "setting": "[7]", "value": 36, "unit": "%"}, {"measurement": "response rate", "setting": "[4]", "value": 18.2, "unit": "%"}]}, {"compound": "CC/C(=C(\\c1ccccc1)c1ccc(OCCN(C)C)cc1)c1ccccc1", "note": "[tamoxifen]", "values": [{"measurement": "complete responses", "setting": "[8]; 27 evaluable for response", "value": "one"}, {"measurement": "partial responses", "setting": "[8]; 27 evaluable for response", "value": "two"}, {"measurement": "grades 3 and 4 adverse effects reported", "setting": "[8]; 32 patients evaluable for adverse effects", "value": "six"}, {"measurement": "antitumor activity, conclusion", "setting": "[8]; in vivo", "value": "minimal activity"}, {"measurement": "objective response rate", "setting": "[8]; tamoxifen citrate 10 mg orally twice a day, 27 evaluable for response", "value": 11.1, "unit": "%"}]}, {"compound": "CC[C@@]1(O)C(=O)OCc2c1cc1n(c2=O)Cc2cc3c(CN(C)C)c(O)ccc3nc2-1", "note": "[topotecan]", "values": [{"measurement": "CR + PR", "setting": "advanced solid tumors", "value": 1}, {"measurement": "response rate", "setting": "[4]", "value": 10, "unit": "%"}]}]}
